Results: patent US20220054398A1, “USE OF RUBUS FRUTICOSUS EXTRACT FOR MANUFACTURING A SKINCARE COMPOSITION” (TCI CO., LTD., priority 2020, published 2022)

Test system: Mouse melanoma cell B16F10
Experiment: Melanin production after blue light exposure, OD450
Format: cell-based
Details: B16F10 cells, 0.25 mg/mL 24 hours, blue light 3 hours, then 48 hours
Procedure: The changes in melanin content of melanoma cell line B16F10 after being treated with Rubus fruticosus extract are determined by an ELISA reader (enzyme-linked immunosorbent assay reader). Materials and Instruments: • 1. Cell line: Mouse melanoma cell B16F10, purchased from American Type Culture Collection (ATCC®, No. 6475), hereinafter referred to as B16F10 cells. • 2. Medium: Dulbecco's modified […] (DMEM, purchased from Gibco, Cat. 12100-038) is supplemented with additional ingredients to contain 1 vol % antibiotic solution (Antibiotic Antimycotic Solution, purchased from Gibco, 15240-062) and 10 vol % FBS (fetal bovine Serum, purchased from Gibco, 10437-028). Gibco, 15240-062). • 3. Phosphate Buffer Solution (PBS solution): purchased from Gibco, Product No. […]. • 4. Prepare a solution of 1N NaOH (Sigma, Product No. 221465) in secondary distilled water. • 5. ELISA reader (purchased from BioTek, product number FLx 800). • 6. […] Transfer 100 μL of the sample to be tested into a 96-well plate and measure the absorbance value of the cell solution at 450 nm using an ELISA reader. The relative melanin expressions of the experimental and control groups are calculated according to the following formula: Relative melanin expression (%)=(OD 450 value of each group/OD450 value of the control group)×100%.

## O=c1cc(CO)occ1O [kojic acid, Kojic acid]
  melanin production compared with the control group: 67.42%
